Data taken from ChEMBL document CHEMBL1909294, “Translating clinical findings into knowledge in drug safety evaluation--drug induced liver injury prediction system (DILIps)” (PLoS Comput Biol, 2011).

Columns and labels:
[1] = system: Hepatotoxicity;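 for HepSE cholecystitis: Cholecystitis-related hepatic side effect score drawn from the DILIps (drug-induced liver injury prediction) training data set; call rule not given here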;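 for HepSE cirrhosis: cirrhosis hepatic side effect score taken from the DILIps (drug-induced liver injury prediction) training set; call rule not given here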;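 for HepSE hepatitis: Hepatitis-related hepatic side effect score taken from the training data of DILIps, a prediction system for drug-induced liver injury; call rule not given here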;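 for HepSE hepatomegaly: hepatic side effect score for hepatomegaly, taken from the training set of the DILIps drug-induced liver injury prediction system; call rule not given here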;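 for HepSE liver fatty: hepatic side effect score for fatty liver, taken from the DILIps training set for predicting drug-induced liver injury; call rule not given here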;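 for HepSE liver function tests abnormal: hepatic side effect score taken from the DILIps (drug-induced liver injury prediction system) training data, here covering abnormal liver function test findings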
[2] = system: Hepatotoxicity; remark: listed apart in the source;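 for HepSE cholecystitis: Cholecystitis-related hepatic side effect score drawn from the DILIps (drug-induced liver injury prediction) training data set; call rule not given here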;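 for HepSE cirrhosis: cirrhosis hepatic side effect score taken from the DILIps (drug-induced liver injury prediction) training set; call rule not given here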;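 for HepSE hepatitis: Hepatitis-related hepatic side effect score taken from the training data of DILIps, a prediction system for drug-induced liver injury; call rule not given here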;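 for HepSE hepatomegaly: hepatic side effect score for hepatomegaly, taken from the training set of the DILIps drug-induced liver injury prediction system; call rule not given here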;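 for HepSE liver fatty: hepatic side effect score for fatty liver, taken from the DILIps training set for predicting drug-induced liver injury; call rule not given here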;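 for HepSE liver function tests abnormal: hepatic side effect score taken from the DILIps (drug-induced liver injury prediction system) training data, here covering abnormal liver function test findings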
[3] = system: Hepatotoxicity; remark: listed apart in the source;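 for HepSE cholecystitis: Cholecystitis-related hepatic side effect score drawn from the DILIps (drug-induced liver injury prediction) training data set; call rule not given here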;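 for HepSE cirrhosis: cirrhosis hepatic side effect score taken from the DILIps (drug-induced liver injury prediction) training set; call rule not given here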;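 for HepSE hepatitis: Hepatitis-related hepatic side effect score taken from the training data of DILIps, a prediction system for drug-induced liver injury; call rule not given here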;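 for HepSE hepatomegaly: hepatic side effect score for hepatomegaly, taken from the training set of the DILIps drug-induced liver injury prediction system; call rule not given here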;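 for HepSE liver fatty: hepatic side effect score for fatty liver, taken from the DILIps training set for predicting drug-induced liver injury; call rule not given here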;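 for HepSE liver function tests abnormal: hepatic side effect score taken from the DILIps (drug-induced liver injury prediction system) training data, here covering abnormal liver function test findings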
[4] = system: Hepatotoxicity; remark: listed apart in the source;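 for HepSE cholecystitis: Cholecystitis-related hepatic side effect score drawn from the DILIps (drug-induced liver injury prediction) training data set; call rule not given here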;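 for HepSE hepatitis: Hepatitis-related hepatic side effect score taken from the training data of DILIps, a prediction system for drug-induced liver injury; call rule not given here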;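 for HepSE hepatomegaly: hepatic side effect score for hepatomegaly, taken from the training set of the DILIps drug-induced liver injury prediction system; call rule not given here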;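 for HepSE liver fatty: hepatic side effect score for fatty liver, taken from the DILIps training set for predicting drug-induced liver injury; call rule not given here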;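 for HepSE liver function tests abnormal: hepatic side effect score taken from the DILIps (drug-induced liver injury prediction system) training data, here covering abnormal liver function test findings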
[5] = system: Hepatotoxicity; remark: listed apart in the source
[6] = system: Hepatotoxicity; remark: listed apart in the source
[7] = system: Hepatotoxicity; remark: listed apart in the source
[8] = system: Hepatotoxicity; remark: listed apart in the source
[9] = system: Hepatotoxicity; remark: listed apart in the source
[10] = system: Hepatotoxicity; remark: listed apart in the source
[11] = system: Hepatotoxicity; remark: listed apart in the source
[12] = system: Hepatotoxicity; remark: listed apart in the source
[13] = system: Hepatotoxicity; remark: listed apart in the source
[14] = system: Hepatotoxicity; remark: listed apart in the source

With C=C1CC[C@H](O)C/C1=C/C=C1\CCC[C@]2(C)[C@@H]([C@H](C)CCCC(C)C)CC[C@@H]12 [CHOLECALCIFEROL] as the compound, how does the “HepSE_liver function tests abnormal” value [1] read?
Its value is 0.

And the HepSE_hepatitis [2]?
Its HepSE_hepatitis is 0.

And the HepSE_liver fatty [3]?
The HepSE_liver fatty was 0.

And the HepSE_bilirubinemia [4]?
The HepSE_bilirubinemia was 0.

What about the HepSE_hepatomegaly [5] of the same compound?
Its HepSE_hepatomegaly is 0.

And the HepSE_cholecystitis [6]?
The HepSE_cholecystitis was 0.

And the HepSE_cholelithiasis [7]?
Its HepSE_cholelithiasis is 0.

And the HepSE_cirrhosis [8]?
Its HepSE_cirrhosis is 0.

What about the “HepSE_elevated liver function tests” value [9] of the same compound?
Its value is 0.

And the HepSE_liver disease [10]?
The HepSE_liver disease was 0.

What about the HepSE_hepatic necrosis [11] of the same compound?
Its HepSE_hepatic necrosis is 0.

And the HepSE_hepatic failure [12]?
The HepSE_hepatic failure was 0.

What about the “HepSE_Combined Scores” value [13] of the same compound?
The value was 0.

And the HepSE_jaundice [14]?
The HepSE_jaundice was 0.

CC(C)C(=O)OCC(=O)[C@@]12O[C@H](C3CCCCC3)O[C@@H]1C[C@H]1[C@@H]3CCC4=CC(=O)C=C[C@]4(C)[C@H]3[C@@H](O)C[C@@]12C [CICLESONIDE] was tested. Which “HepSE_liver function tests abnormal” value [1] did it give?
The value was 0.

And the HepSE_hepatitis [2]?
The HepSE_hepatitis was 0.

And the HepSE_liver fatty [3]?
Its HepSE_liver fatty is 0.

And the HepSE_bilirubinemia [4]?
The HepSE_bilirubinemia was 0.

And the HepSE_hepatomegaly [5]?
Its HepSE_hepatomegaly is 0.

What about the HepSE_cholecystitis [6] of the same compound?
Its HepSE_cholecystitis is 0.

And the HepSE_cholelithiasis [7]?
Its HepSE_cholelithiasis is 0.

And the HepSE_cirrhosis [8]?
Its HepSE_cirrhosis is 0.

What about the “HepSE_elevated liver function tests” value [9] of the same compound?
Its value is 0.

What about the HepSE_liver disease [10] of the same compound?
Its HepSE_liver disease is 0.

And the HepSE_hepatic necrosis [11]?
Its HepSE_hepatic necrosis is 0.

What about the HepSE_hepatic failure [12] of the same compound?
Its HepSE_hepatic failure is 0.

And the “HepSE_Combined Scores” value [13]?
The value was 0.

And the HepSE_jaundice [14]?
The HepSE_jaundice was 0.

Which “HepSE_liver function tests abnormal” value [1] does the source give for Cc1cc(C2CCCCC2)n(O)c(=O)c1 [CICLOPIROX] here?
Its value is 0.

And the HepSE_hepatitis [2]?
Its HepSE_hepatitis is 0.

And the HepSE_liver fatty [3]?
The HepSE_liver fatty was 0.

What about the HepSE_bilirubinemia [4] of the same compound?
The HepSE_bilirubinemia was 0.

What about the HepSE_hepatomegaly [5] of the same compound?
The HepSE_hepatomegaly was 0.

What about the HepSE_cholecystitis [6] of the same compound?
The HepSE_cholecystitis was 0.

What about the HepSE_cholelithiasis [7] of the same compound?
The HepSE_cholelithiasis was 0.

What about the HepSE_cirrhosis [8] of the same compound?
The HepSE_cirrhosis was 0.

And the “HepSE_elevated liver function tests” value [9]?
The value was 0.

What about the HepSE_liver disease [10] of the same compound?
The HepSE_liver disease was 0.

And the HepSE_hepatic necrosis [11]?
Its HepSE_hepatic necrosis is 0.

What about the HepSE_hepatic failure [12] of the same compound?
The HepSE_hepatic failure was 0.

What about the “HepSE_Combined Scores” value [13] of the same compound?
Its value is 0.

What about the HepSE_jaundice [14] of the same compound?
The HepSE_jaundice was 0.

Nc1ccn(C[C@@H](CO)OCP(=O)(O)O)c(=O)n1.O.O [CIDOFOVIR] was tested. Which “HepSE_liver function tests abnormal” value [1] did it give?
Its value is 0.

And the HepSE_hepatitis [2]?
Its HepSE_hepatitis is 1.

And the HepSE_liver fatty [3]?
Its HepSE_liver fatty is 0.

What about the HepSE_bilirubinemia [4] of the same compound?
Its HepSE_bilirubinemia is 0.

And the HepSE_hepatomegaly [5]?
Its HepSE_hepatomegaly is 1.

And the HepSE_cholecystitis [6]?
The HepSE_cholecystitis was 0.

And the HepSE_cholelithiasis [7]?
The HepSE_cholelithiasis was 0.

And the HepSE_cirrhosis [8]?
The HepSE_cirrhosis was 0.

And the “HepSE_elevated liver function tests” value [9]?
Its value is 0.

And the HepSE_liver disease [10]?
The HepSE_liver disease was 0.

What about the HepSE_hepatic necrosis [11] of the same compound?
The HepSE_hepatic necrosis was 1.

What about the HepSE_hepatic failure [12] of the same compound?
Its HepSE_hepatic failure is 0.

And the “HepSE_Combined Scores” value [13]?
The value was 4.

And the HepSE_jaundice [14]?
The HepSE_jaundice was 1.

Which results are given for CCOC(=O)[C@H](CCc1ccccc1)N[C@H]1CCCN2CCC[C@@H](C(=O)O)N2C1=O [CILAZAPRIL]?
HepSE_liver function tests abnormal [1]: 0; HepSE_hepatitis [2]: 1; HepSE_liver fatty [3]: 0; HepSE_bilirubinemia [4]: 0; HepSE_hepatomegaly [5]: 0; HepSE_cholecystitis [6]: 0; HepSE_cholelithiasis [7]: 0; HepSE_cirrhosis [8]: 0; HepSE_elevated liver function tests [9]: 0; HepSE_liver disease [10]: 0; HepSE_hepatic necrosis [11]: 0; HepSE_hepatic failure [12]: 0; HepSE_Combined Scores [13]: 1; HepSE_jaundice [14]: 0

CN/C(=N/CCSCc1nc[nH]c1C)NC#N [CIMETIDINE] was tested. Which “HepSE_liver function tests abnormal” value ([1]; Liver) did it give?
Its value is 0.

What about the HepSE_hepatitis ([2]; Liver) of the same compound?
The HepSE_hepatitis was 0.

And the HepSE_liver fatty ([3]; Liver)?
Its HepSE_liver fatty is 0.

And the HepSE_bilirubinemia ([4]; Liver)?
Its HepSE_bilirubinemia is 0.

And the HepSE_hepatomegaly ([5]; Liver)?
The HepSE_hepatomegaly was 0.

What about the HepSE_cholecystitis ([6]; Liver) of the same compound?
The HepSE_cholecystitis was 0.

What about the HepSE_cholelithiasis ([7]; Liver) of the same compound?
The HepSE_cholelithiasis was 0.

What about the HepSE_cirrhosis ([8]; Liver) of the same compound?
Its HepSE_cirrhosis is 0.

And the “HepSE_elevated liver function tests” value ([9]; Liver)?
The value was 0.

What about the HepSE_liver disease ([10]; Liver) of the same compound?
The HepSE_liver disease was 0.

And the HepSE_hepatic necrosis ([11]; Liver)?
The HepSE_hepatic necrosis was 0.

And the HepSE_hepatic failure ([12]; Liver)?
The HepSE_hepatic failure was 0.

What about the “HepSE_Combined Scores” value ([13]; Liver) of the same compound?
The value was 0.

What about the HepSE_jaundice ([14]; Liver) of the same compound?
The HepSE_jaundice was 0.
